Common to all, as to assay: inhibition of tumour cell growth, NCI panel, 48 h
Experiment [1] deals with OVCAR-8 ovarian.
For experiment [2], the system named is MOLT-4 leukemia.
The subject of experiment [3] is SK-OV-3 ovarian.
For experiment [4], the system named is MCF7 breast.
In experiment [5] the test system is U251 CNS.
Experiment [6] deals with CCRF-CEM leukemia.
For experiment [7], the system named is RPMI-8226 leukemia.
Experiment [8] has as its system SF-539 CNS.
Experiment [9] deals with MDA-MB-231 breast.
Experiment [10] deals with DU-145 prostate.

The structures appear in SMILES notation.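 How tested: cells in 96-well plates exposed to compound for 48 hours at five concentrations. GI50: concentration for 50% inhibition of growth. TGI denotes the concentration required for complete inhibition of growth.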

Regarding `CC(C)C[C@H](NC(=O)CCc1cccc2ccccc12)B(O)O`, the TGI in experiment [1] was 19.6 µM; in experiment [2] it was 3.86 µM; in experiment [3] it was more than 86.4 µM; in [4] it was more than 52 µM; in experiment [5], 19.6 µM; in [6], […]. Moreover, the TGI in experiment [7] was 3.95 µM; in [8], 1.21 µM; in [9], 15.2 µM; in [10], more than 65.6 µM.

As to `COC(=O)C1SC[C@H]2C(=O)N(c3ccccc3)C(=O)N12` (stereo not given in full), the TGI in experiment [1], in [2], in experiment [3], in experiment [4], in [5] and in experiment [6] was more than 100 µM each time. For the same molecule, the TGI in [7], in [8], in experiment [9] and in [10] was more than 100 µM each time.

In the case of `C(/C=C/Nc1ccc(-c2ccccc2)cc1)=Nc1ccc(-c2ccccc2)cc1`, the TGI in [1], in [2], in experiment [3], in experiment [4], in experiment [5] and in [6] was more than 100 µM in each case. Moreover, the TGI in [7], in [8], in experiment [9] and in experiment [10] was more than 100 µM in each case.

Take `CCCCCCCCCC[N+](C)(C)C`: the GI50 was 1.83 µM in [1]; 1.59 µM in experiment [2]; 2.57 µM in [3]; 2.45 µM in experiment [4]; 1.04 µM in experiment [5]; 0.739 µM in experiment [6]. Besides, the GI50 in experiment [7] is 0.604 µM; in [8], 2.17 µM; in [9], 1.59 µM; in experiment [10], 1.94 µM. Moreover, the TGI in experiment [1] stood at 5.53 µM; in [2], 3.43 µM; in experiment [3], 13 µM; in experiment [4], 12.7 µM; in [5], 2.29 µM; in experiment [6], 2.32 µM. Also, the TGI in experiment [7] came to 2.9 µM; in experiment [8], 5.9 µM; in experiment [9], 4.38 µM; in [10], 4.88 µM.

As to `COc1ccc(NC(=S)Nc2c(C)n(C)n(-c3ccccc3)c2=O)cc1`, the TGI in experiment [1], in [2], in experiment [3], in experiment [4], in experiment [5] and in experiment [6] was more than 100 µM in each case. In addition, the TGI in experiment [7], in [8], in experiment [9] and in experiment [10] was more than 100 µM in each case.

Consider `CCSc1nc(C)nc2c1sc1nc3ccccc3n12`, for which the TGI in experiment [1], in experiment [2], in experiment [3], in experiment [4], in experiment [5] and in experiment [6] was more than 100 µM each time. In addition, the TGI in experiment [7], in [8], in experiment [9] and in experiment [10] was more than 100 µM throughout.

As for `O=C(Nc1nccs1)NS(=O)(=O)n1cnc2ccccc21`, the TGI in experiment [1], in experiment [2], in experiment [3], in experiment [4], in experiment [5] and in [6] was more than 100 µM in each case. Also, the TGI in experiment [7], in experiment [8], in experiment [9] and in experiment [10] was more than 100 µM throughout.

Regarding `COc1ccc(C(=O)N(Cc2cccnc2)C(=S)N(Cc2cccnc2)C(=O)c2ccc(OC)cc2)cc1`, the TGI in [1], in [2], in [3], in experiment [4], in experiment [5] and in experiment [6] was more than 100 µM in each case. Moreover, the TGI in [7], in experiment [8], in [9] and in experiment [10] was more than 100 µM each time.

As to `COc1ccc2[nH]c3c(C)c4ncccc4c(C)c3c2c1`, the TGI in [1] is more than 10 µM; in experiment [2] it was more than 10 µM; in experiment [3] it was more than 10 µM; in experiment [4], 4.81 µM; in experiment [5], more than 10 µM; in experiment [6] it was more than 10 µM. Further, the TGI in [7] was 7.56 µM; in experiment [8], more than 10 µM; in experiment [9], more than 10 µM; in experiment [10] it was more than 10 µM.

As to `CNC(=O)OCC1=C(COC(=O)NC)C(C)N(c2ccccc2)C1` (stereo not given), the TGI in experiment [1] was more than 100 µM; in experiment [2] it was 71.1 µM; in experiment [3], more than 100 µM; in experiment [4], 58.3 µM; in experiment [5], more than 100 µM; in experiment [6], more than 100 µM. Also, the TGI in [7] was 83 µM; in experiment [8], 67.3 µM; in experiment [9] it was more than 100 µM; in experiment [10], more than 100 µM.

On to `OC[C@@H](O)[C@H](O)[C@@H](O)/C=N/Nc1ccc(Cl)nn1`, for which the TGI in experiment [1], in experiment [2], in experiment [3], in experiment [4], in experiment [5] and in experiment [6] was more than 100 µM each time. Besides, the TGI in experiment [7], in experiment [8], in experiment [9] and in experiment [10] was more than 100 µM in each case.

For the molecule `CCCCCCC(=O)c1ccc2ccccc2c1O`, the TGI in experiment [1], in experiment [2], in experiment [3], in experiment [4], in [5] and in [6] was more than 100 µM in each case. Moreover, the TGI is more than 100 µM in [7], more than 100 µM in experiment [8], more than 100 µM in experiment [9] and 92.6 µM in experiment [10].

Take `CCNC1=C(NC(=O)CCl)C(=O)c2ccccc2C1=O`: the TGI in [1] is 38.3 µM; in experiment [2], 55.5 µM; in [3], more than 10 µM; in [4] it was 47.4 µM; in experiment [5], 35.9 µM; in [6], 58.1 µM. Moreover, the TGI in experiment [7] was more than 100 µM; in experiment [8], 44.5 µM; in experiment [9], 40.9 µM; in experiment [10], more than 10 µM.

These data come from PubChem BioAssay (NCI).
